Experimental data as given in patent publication US9037228B2, “Method and system for detecting electrophysiological changes in pre-cancerous and cancerous tissue” (Epi-Sci, LLC, priority 2002, dated 2015).
Where two headings read alike, the source gives them in different places.

Experiments:
[1] = system: human prostatic epithelial cells; settings: cells grown in presence of DHT
Source text: FIG. 13 represent measurements of cell membrane potential (ψ) in human prostatic epithelial cells under different growth conditions. A Voltage-sensitive FRET (fluorescent energy transfer) probe was used for potentiometric ratio measurements. It has two fluorescent components: CC2-DMPE (Coumarin) and DISBAC2(3) (Oxonol). The oxonol distributes itself on opposite sides of the cell membrane in a Nernstian manner according to the ψ. The voltage sensitive distribution of oxonol is transduced through a ratiometric fluorescence signal via the coumarin which is bound to the outside surface of the cell membrane thereby amplifying the fluorescence. Measurements were made using a fluorescence microscope and a digital imaging system. The ratio measurements are calibrated using Gramicidin D to depolarize the cell membrane and then varying the external K^+-concentration. The calibrated cell membrane potential in mV is depicted on the y-axis.
The filled bars indicates the ψ of exponentially growing prostatic epithelial cells before they reach confluence, whereas the open bars depict the ψ of the cells once they reach confluence and cell growth slows.

[2] = system: apical K+ channels of human colonic mucosa; settings: normal colon, 30 mM mucosal TEA after elevated serosal K+, 0.1 mM amiloride present
Protocol: The potassium permeability of the apical membrane of human colonic mucosa (P^Ka) was determined in surgical specimens of controls and grossly normal-appearing mucosa obtained 10-30 cm proximal to colorectal adenocarcinomas. The mucosa was mounted in Ussing chambers and the basolateral membrane resistance and voltage were nullified by elevating the K^+ in the serosal bathing solution. The apical sodium (Na^+) conductance was blocked with 0.1 mM amiloride. This protocol reduces the equivalent circuit model of the epithelium to an apical membrane conductance and electromotive force in parallel with the paracellular pathway as has been verified by microelectrode studies. […] The serosal bath was remained constant at 125 mM [K].

colonic mucosa = experiment: TEP response of colonic mucosa to topically applied amiloride
Source text: The measured TEP decreases in response to a topically applied amiloride (a sodium channel blocker) in normal colonic mucosa. This response is reduced by approximately 50% in pre-cancerous mucosa or by greater than 75% in cancerous mucosa. In addition, the loss in sodium conductance results in an increase of impedance of the surface epithelium. This ion transport alteration may be measured by determining the change in TEP as well as the basal impedance. In abnormal pre-cancerous or cancerous tissue, the TEP is lower, the response of the TEP to amiloride is less, and the increase in impedance (observed in normal colon in response to amiloride) is less in abnormal pre-cancerous or cancerous tissue. Similar pharmacological agents may be introduced that alter the effect of chloride or potassium ion transport, which affect abnormal pre-cancerous or cancerous tissue in a different manner than in normal colon tissue.

breast tissue = experiment: Electrophysiological (TEP) response of breast tissue to estradiol given into the duct or sublingually; format: in vivo; settings: into the duct or sublingual 17-β-estradiol (4 mg)
Protocol: In one method of present invention, estradiol is introduced directly into the duct or systematically following sublingual administration of 17-β-estradiol (4 mg). This agent produces a rapid response, which peaks at approximately 20 minutes. The electrophysiological response depends, in part, on the stage of the patient's menstrual cycle, as well as the condition of the breast tissue. Specifically, in normal breast tissue, a rise in TEP will occur during the follicular (or early) phase. In pre-cancerous or cancerous tissue, this response is abrogated.

[3] = system: human breast epithelial cells; experiment: Cell membrane potential (ψ) in human breast epithelial cells, potentiometric fluorescent probe; format: cell-based
Protocol: Measurements were made using a potentiometric fluorescent probe, and ratiometric measurements, which are calibrated using valinomycin and K^+-gradients. ψs were measured in the presence (closed circles) and absence (open circles) of estradiol (the active metabolite of estrogen). Each symbol is the mean measurement. The upper error bar is the standard error of the mean, and the lower error bar is the 95% confidence level for the observations. The addition of estrogen to cultured breast epithelial cells results in an instantaneous increase in ψ (data not shown) as well as transepithelial potential see FIG. 10. Transepithelial potential (VT) of an epithelium is the sum of the apical (luminal) cell membrane potential (VA) and the basolateral (abluminal) cell membrane potential (VBL). Therefore VT=VA+VBL(changes in VA and VBL will therefore alter VT or transepithelial potential). […] Malignant and transformed cells have a ψ of between −31 and −35 mV in the absence of estradiol and approximately […] when estradiol is present in the culture medium.

[4] = system: benign and malignant human breast epithelial cells; experiment: Transepithelial potential (TEP) of breast epithelial monolayers in modified Ussing chambers, voltage clamp; format: cell-based
Protocol: It should be noted that the instantaneous response, illustrated in FIG. 10, is greater in malignant epithelia, whereas the chronic or sustained exposure to estradiol results in a lower increase in TEP (transepithelial electropotential) in malignant cells. Concurrent measurement of surface electropotential and impedance allow the more accurate diagnosis of cancer. […] The cells were grown as monolayers on Millipore filters and grew to confluence in 7 to 10 days. The epithelia were then mounted in modified Ussing chambers and the TEP was measured using a voltage clamp. Increasing doses of estradiol between 0 and 0.8 μM were added (x-axis). The transepithelial potential was measured after each addition and the TEP was measured (y-axis). The different dose response is apparent for benign and malignant epithelia. Malignant epithelia have a lower TEP but undergo an instantaneous increase in TEP of approximately 9 mV (becomes more electronegative and reaches a level of <6 mV) after exposure to only 0.1 μM estradiol and then depolarize to approximately −2 mV with increasing doses of estradiol up to about 0.5 μM.

[5] = malignant epithelia, after exposure to 0.1 μM estradiol

What does the source list for C[C@]12CCC(=O)C[C@@H]1CC[C@@H]1[C@@H]2CC[C@]2(C)[C@@H](O)CC[C@@H]12 [DHT, dihydroxytestosterone]?
effect on cell membrane potential ψ ([1]; exponential growth): slightly hyperpolarized; effect on cell membrane potential ψ ([1]; on reaching confluence): depolarize

CC[N+](CC)(CC)CC [TEA, tetraethyl ammonium] was tested. Which “effect on Isc” value [2] did it give?
The value was “abrupt increase in Isc”.

Which results are given for N=C(N)NC(=O)c1nc(Cl)c(N)nc1N [amiloride]?
reduction of the TEP response to amiloride (colonic mucosa; cancerous mucosa versus normal): greater than 75%; effect on measured TEP (colonic mucosa; normal colonic mucosa, topically applied): decreases; reduction of the TEP response to amiloride (colonic mucosa; pre-cancerous mucosa versus normal): approximately 50%

How did the “time of peak electrophysiological response” value (breast tissue) turn out when C[C@]12CC[C@@H]3c4ccc(O)cc4CC[C@H]3[C@@H]1CC[C@@H]2O [estradiol, 17-β-estradiol] was run?
Its value is “approximately 20 minutes”.

And the “cell membrane potential ψ” value ([3]; benign breast epithelial cells, estradiol added to the culture media (about −50 mV without))?
Its value is ~−70 mV.

And the “cell membrane potential ψ” value ([3]; malignant and transformed cells, estradiol present in culture medium (−31 to −35 mV without))?
Its value is “approximately 50 mV”.

What about the “estradiol dose at which TEP response peaks” value ([4]; benign epithelia, then remains persistently elevated) of the same compound?
The value was ~0.3 µM.

What about the TEP level reached [4, 5] of the same compound?
Its TEP level reached is < 6 mV.

And the “instantaneous increase in TEP” value [4, 5]?
Its value is “approximately 9 mV”.

And the TEP after depolarization ([4]; malignant epithelia, increasing doses of estradiol up to about 0.5 μM)?
Its TEP after depolarization is “approximately −2 mV”.
